Key:
[1] = system: wheat crops; test: Experiment II: field experiments in wheat, irrigated north-west plain zone of Rajasthan; assay type: in vivo; settings: 24 kg ha^−1
Protocol: Field Experiments in wheat was carried out using the composition of the present invention in the soils of the irrigated north-west plain zone of Rajasthan. The soils of north-west plain zone are deficient in zinc and poor growth or deficiency symptoms appear on the wheat crops. Two foliar sprays were applied. First, during the vegetative growth stage on early appearance of the deficiency symptoms and the second foliar spray during the flag leaf initiation stage of the wheat crop. [table] The soil of the irrigated north-west plain zone of Rajasthan has a pH, of 8.27 and electric conductivity was 0.20 dS^−m. […] The diethylene triamine pentaacetic acid (DTPA) extractable zinc concentration in the soil was low.

[2] = system: Wheat cultivar PBW 550; test: Experiment I: field experiments in wheat under different Zn treatments (PAU research farm and farmer's field, Jattpur); assay type: in vivo; settings: soil application 62.5 kg ha^−1
Protocol: Field Experiments in wheat was carried out using the composition of the present invention for two consecutive years in Punjab Agriculture University (PAU) Research Farm and Framer's field (Jattpur) loamy soil. Wheat cultivar PBW 550 seeds were sown during the first week of November. Two Zn chelates at different concentrations at two stages of wheat plant growth were applied through foliar application. In another treatment, Zn was added to the soil as basal dose at 62.5 kg ha^−1 using ZnSO4.7H2O salt. The first application of Zn chelate spray was done at maximum tillering stage and the second application was made at panicle initiation stage. Various parameters like plant height, tillers and 1000-grain weight were noted. Additionally during maturity in the month of April, the wheat grain and straw yield were noted.
The physio-chemical analyses of the soil before the start of the experiment was carried out at the two locations were the experiments were to be carried.
The plant parameters in wheat under different Zn treatments at PAU research farm and farmer's field are shown in Table 3 and Table 4 respectively and grain and straw yields in wheat under different Zn treatments at PAU research farm and farmer's field are shown in Table 5 and Table 6 respectively.

[3] = PAU research farm, Rabi 2009-2010
[4] = PAU research farm, Rabi 2010-2011

**Q.** Which results are given for `O=S(=O)([O-])[O-].[Zn+2]` [ZnSO4]?
**A.** 1000 Grain weight [1]: 39.73 g; Ear length (cm) [1]: 10.18 cm; No. of tillers m^−1 row length [1]: 122; Yield (tonne ha^−1) Grain [1]: 4.57 tonne ha^−1; Yield (tonne ha^−1) Straw [1]: 6.61 tonne ha^−1; Zn conc [1]: 30.25 mg/kg

**Q.** Which results are given for `O.O.O.O.O.O.O.O=S(=O)([O-])[O-].[Zn+2]` [ZnSO4•7H2O]?
**A.** 1000 grains weight [2, 3]: 38.4 g; Grain yield [2, 3]: 52.5 q ha^−1; Grain yield % increase over control [2, 3]: 10.8%; Plant height (cm) [2, 3]: 76.7 cm; Straw yield [2, 3]: 65.0 q ha^−1; Straw yield % increase over control [2, 3]: 3.7%; Tillers per square meter [2, 3]: 293; 1000 grains weight [2, 4]: 38.7 g; Grain yield [2, 4]: 54.4 q ha^−1; Grain yield % increase over control [2, 4]: 13.3%; Plant height (cm) [2, 4]: 97.69 cm; Straw yield [2, 4]: 65.7 q ha^−1; Straw yield % increase over control [2, 4]: 5.5%; Tillers per square meter [2, 4]: 377; 1000 grains weight ([2]; farmer's field, Rabi 2009-2010): 35.1 g; Grain yield ([2]; farmer's field, Rabi 2009-2010): 46.7 q ha^−1; Grain yield % increase over control ([2]; farmer's field, Rabi 2009-2010): 28.7%; Plant height (cm) ([2]; farmer's field, Rabi 2009-2010): 76.6 cm; Straw yield ([2]; farmer's field, Rabi 2009-2010): 55.3 q ha^−1; Straw yield % increase over control ([2]; farmer's field, Rabi 2009-2010): 9.1%; Tillers per square meter ([2]; farmer's field, Rabi 2009-2010): 272; 1000 grains weight ([2]; farmer's field, Rabi 2010-2011): 34.3 g; Grain yield ([2]; farmer's field, Rabi 2010-2011): 46.0 q ha^−1; Grain yield % increase over control ([2]; farmer's field, Rabi 2010-2011): 28.5%; Plant height (cm) ([2]; farmer's field, Rabi 2010-2011): 74.7 cm; Straw yield ([2]; farmer's field, Rabi 2010-2011): 54.7 q ha^−1; Straw yield % increase over control ([2]; farmer's field, Rabi 2010-2011): 20.8%; Tillers per square meter ([2]; farmer's field, Rabi 2010-2011): 353

Reference: patent publication US9499446B2, “Zinc-essential for flora and fauna” (priority 2012, dated 2016)
